Tests used:
Settings in all cases: 72 h
Caco-2 [1] = assay: cell viability relative to DMSO; higher = less toxic
Calu-3 [2] = assay: as above
HepG2 [3] = assay: as above
U2OS [4] = assay: as above
Vero E6 [5] = assay: as above
Caco-2 [6] = assay: relative viability EC50 (midpoint between 100% and the lowest measured viability); higher = less toxic
Calu-3 [7] = assay: as above
HepG2 [8] = assay: as above
U2OS [9] = assay: as above
Vero E6 [10] = assay: as above
Caco-2 [11] = assay: drug sensitivity score (DSS) for viability; higher = more toxic; extreme values may be limits of the assay
Calu-3 [12] = assay: as above
HepG2 [13] = assay: as above
U2OS [14] = assay: as above
Vero E6 [15] = assay: as above

Row | SMILES | cell viability (Caco-2 [1]; 1 nM) [%] | cell viability (Caco-2 [1]; 10 nM) [%] | cell viability (Caco-2 [1]; 100 nM) [%] | cell viability (Caco-2 [1]; 1000 nM) [%] | cell viability (Caco-2 [1]; 10000 nM) [%] | cell viability (Calu-3 [2]; 1 nM) [%] | cell viability (Calu-3 [2]; 10 nM) [%] | cell viability (Calu-3 [2]; 100 nM) [%] | cell viability (Calu-3 [2]; 1000 nM) [%] | cell viability (Calu-3 [2]; 10000 nM) [%] | cell viability (HepG2 [3]; 1 nM) [%] | cell viability (HepG2 [3]; 10 nM) [%] | cell viability (HepG2 [3]; 100 nM) [%] | cell viability (HepG2 [3]; 1000 nM) [%] | cell viability (HepG2 [3]; 10000 nM) [%] | cell viability (U2OS [4]; 1 nM) [%] | cell viability (U2OS [4]; 10 nM) [%] | cell viability (U2OS [4]; 100 nM) [%] | cell viability (U2OS [4]; 1000 nM) [%] | cell viability (U2OS [4]; 10000 nM) [%] | cell viability (Vero E6 [5]; 1 nM) [%] | cell viability (Vero E6 [5]; 10 nM) [%] | cell viability (Vero E6 [5]; 100 nM) [%] | cell viability (Vero E6 [5]; 1000 nM) [%] | cell viability (Vero E6 [5]; 10000 nM) [%] | relative viability EC50 (Caco-2 [6]) [µM] | relative viability EC50 (Calu-3 [7]) [µM] | relative viability EC50 (HepG2 [8]) [µM] | relative viability EC50 (U2OS [9]) [µM] | relative viability EC50 (Vero E6 [10]) [µM] | drug sensitivity score (Caco-2 [11]) | drug sensitivity score (Calu-3 [12]) | drug sensitivity score (HepG2 [13]) | drug sensitivity score (U2OS [14]) | drug sensitivity score (Vero E6 [15])
1 | CO[C@H]1/C=C\C=C(/C)C(=O)NC2=CC(=O)C(NCCN(C)C)=C(C[C@@H](C)C[C@H](OC)[C@H](O)[C@@H](C)/C=C(\C)[C@@H]1OC(N)=O)C2=O [alvespimycin] | 98.4 | 90.3 | 82.9 | 39.7 | 1.6 | 97.3 | 88.4 | 67.1 | 36 | 20 | 106 | 57.9 | 1.3 | 1.4 | -0.1 | 97.7 | 91.3 | 30.8 | 2.5 | 1 | 93.4 | 98.4 | 94.9 | 37 | 10.1 | 0.544 | 0.148 | 0.0114 | 0.0542 | 0.587 | 13.9 | 16.4 | 36 | 26.6 | 12.8
2 | CC(C)(C)NCc1cc(Nc2ccnc3cc(Cl)ccc23)c2c(c1O)CCCC2 [naphthoquine-phosphate] | 108 | 99.7 | 98.5 | 99.6 | 83 | 96.3 | 98 | 101 | 91 | 109 | 106 | 106 | 106 | 99.6 | 98.6 | 96.3 | 96.6 | 103 | 95.9 | 98.1 | 106 | 110 | 108 | 99.3 | 93.5 | > 10 | > 10 | > 10 | > 10 | > 10 | 0.4 | 0 | 0 | 0 | 0
3 | O=C(Nc1c(-c2cccs2)nc2ccccn12)c1ccc(Cl)cc1 | 99 | 95 | 104 | 97.5 | 102 | 106 | 104 | 103 | 86.9 | 107 | 98.9 | 95.3 | 99 | 101 | 91.4 | 104 | 96.7 | 103 | 99.3 | 103 | 96.7 | 103 | 96.6 | 95.1 | 92.9 | > 10 | > 10 | > 10 | > 10 | > 10 | 0 | 0 | 0 | 0 | 0
4 | C=C1CC[C@@]2(O)[C@H]3Cc4ccc(O)c5c4[C@@]2(CCN3CC2CC2)[C@H]1O5 [nalmefene] | 95.5 | 94.6 | 93.8 | 102 | 99.3 | 96.6 | 97.5 | 106 | 88.6 | 103 | 102 | 95.3 | 110 | 95.1 | 113 | 95.6 | 98.6 | 93.7 | 99.4 | 106 | 106 | 96.9 | 96.8 | 98.3 | 107 | > 10 | > 10 | > 10 | > 10 | > 10 | 0 | 0 | 0 | 0 | 0
5 | Cc1cn([C@H]2C=C[C@@H](CO)O2)c(=O)[nH]c1=O [stavudine] | 92.7 | 92.4 | 82.9 | 113 | 88.6 | 94.1 | 102 | 92.9 | 101 | 108 | 88.4 | 91.5 | 93.8 | 98.4 | 95 | 102 | 99.7 | 103 | 96.7 | 106 | 92.7 | 94.5 | 95.9 | 104 | 105 | > 10 | > 10 | > 10 | > 10 | > 10 | 0 | 0 | 0 | 0 | 0
6 | C[C@]12CCC(=O)C=C1[C@@H]1C[C@@H]1[C@H]1[C@@H]3[C@@H]4C[C@@H]4[C@@]4(CCC(=O)O4)[C@@]3(C)CC[C@@H]12 [drospirenone] | 86.1 | 96.5 | 96.1 | 94.1 | 108 | 99.5 | 97.9 | 97.4 | 100 | 120 | 99.1 | 102 | 106 | 98.4 | 92.7 | 98.7 | 102 | 103 | 104 | 88.3 | 108 | 102 | 112 | 101 | 89.2 | > 10 | > 10 | > 10 | > 10 | > 10 | 0 | 0 | 0 | 0 | 0
7 | Cc1ccc([N+](=O)[O-])cc1S(=O)(=O)N(C)/N=C/c1cnc2ccc(Br)cn12 [PIK-75] | 98.8 | 90.3 | 57.9 | 28.4 | 33.3 | 102 | 103 | 52.6 | 35.6 | 46.7 | 97.9 | 84.7 | 26 | 11.1 | 10.6 | 98.6 | 96.6 | 53.8 | 4.2 | 0.8 | 105 | 101 | 69.7 | 0.7 | 5.3 | 0.0669 | 0.0668 | 0.0317 | 0.109 | 0.139 | 18.3 | 17.4 | 26.8 | 23 | 22.3
8 | CCOC(=O)C1=CCCC[C@H]1S(=O)(=O)Nc1ccc(F)cc1Cl [resatorvid] | 98.4 | 98.9 | 93.6 | 99 | 96.1 | 94.8 | 104 | 92.9 | 111 | 96.2 | 104 | 95.6 | 109 | 110 | 98.6 | 100 | 97.7 | 96.9 | 99.6 | 94.7 | 95.2 | 103 | 97.6 | 88.4 | 98.4 | > 10 | > 10 | > 10 | > 10 | > 10 | 0 | 0 | 0 | 0 | 0
9 | COc1ccccc1C(=O)Nc1cccc(NC(=O)c2cccc(C)c2)c1 [ML365] | 97.8 | 101 | 97.4 | 92.8 | 86 | 99 | 98.4 | 96.2 | 98.4 | 94.3 | 113 | 98.7 | 91.6 | 116 | 85.8 | 107 | 102 | 103 | 98.5 | 99 | 102 | 100 | 101 | 98.2 | 95 | > 10 | > 10 | > 10 | > 10 | > 10 | 0.3 | 0 | 0 | 0 | 0
10 | CN1CC[C@H](c2c(O)cc(O)c3c(=O)cc(-c4ccccc4Cl)oc23)[C@H](O)C1 [alvocidib] | 104 | 99.3 | 93.3 | 25.5 | 30.2 | 89.9 | 98.4 | 80.4 | 36.8 | 37.4 | 100 | 106 | 59.3 | 9.5 | 7.2 | 98.7 | 101 | 95.4 | 3 | 3.4 | 102 | 102 | 95.2 | 5.5 | 3.4 | 0.242 | 0.138 | 0.111 | 0.28 | 0.29 | 14.7 | 14.5 | 22.1 | 18.1 | 17.8
11 | O=C(c1ccc(F)cc1)C1CCN(CCn2c(=O)[nH]c3ccccc3c2=O)CC1 [ketanserin] | 93.1 | 100 | 95.6 | 99.7 | 96.9 | 96.2 | 95.8 | 90.3 | 92.9 | 102 | 102 | 95 | 97.3 | 102 | 97.2 | 90 | 98.3 | 96.1 | 103 | 106 | 96.9 | 94.9 | 97.8 | 101 | 103 | > 10 | > 10 | > 10 | > 10 | > 10 | 0 | 0 | 0 | 0 | 0
12 | CC(=O)Oc1cc(C(F)(F)F)ccc1C(=O)O [triflusal] | 96 | 106 | 90 | 98.4 | 103 | 98.6 | 97.9 | 93.5 | 92.2 | 103 | 90.6 | 90.5 | 92.1 | 101 | 111 | 96.2 | 102 | 99.5 | 97.9 | 101 | 99.4 | 96.9 | 97.7 | 100 | 94.5 | > 10 | > 10 | > 10 | > 10 | > 10 | 0 | 0 | 0 | 0 | 0
13 | C[N+]1(C)[C@@H]2CC[C@H]1C[C@@H](OC(=O)C(O)c1ccccc1)C2 (stereo not given in full) [homatropine-methylbromide] | 100 | 90.8 | 99.7 | 106 | 84.2 | 105 | 108 | 114 | 94.2 | 102 | 98.7 | 95.3 | 102 | 91.8 | 98.9 | 96.7 | 101 | 95.2 | 102 | 96.4 | 101 | 97.5 | 106 | 108 | 98.8 | > 10 | > 10 | > 10 | > 10 | > 10 | 0.2 | 0 | 0 | 0 | 0
14 | O=C(OC(C(F)(F)F)C(F)(F)F)N1CCC(C(O)(c2ccc3c(c2)OCO3)c2ccc3c(c2)OCO3)CC1 [KML29] | 94.6 | 99.6 | 117 | 97 | 106 | 109 | 105 | 98 | 108 | 92.6 | 96.7 | 96.1 | 94.1 | 106 | 98.8 | 103 | 99.8 | 101 | 95.5 | 95.5 | 94 | 96.2 | 97.8 | 98.3 | 91.7 | > 10 | > 10 | > 10 | > 10 | > 10 | 0 | 0 | 0 | 0 | 0
